In patent US20260200925A1, “SMALL MOLECULE INHIBITORS OF KRAS MUTATED PROTEINS” (MERCK SHARP & DOHME LLC, priority 2021, published 2026):

What was measured:
[1] = target: Recombinant KRAS-G12V (SEQ ID NO: 3) (Homo sapiens, UniProt P01116, G12V); experiment: SOS-catalyzed guanine nucleotide exchange (GNE) assay, KRAS-G12V
Procedure: (§1) Specifically, the SOS-catalyzed nucleotide exchange assay utilizes a preformed time-resolved fluorescence resonance energy transfer (TR-FRET) complex containing a specific biotinylated RAS protein (KRAS-G12C/V/D, HRAS, NRAS; described above) with BODIPY-GDP, and Terbium-streptavidin. Test compounds are preincubated with this complex for 60 minutes.
(§2) To assemble the preformed TR-FRET complexes, each biotinylated RAS protein is diluted to 2 μM in an EDTA Buffer (20 mM HEPES, 50 mM sodium chloride, 10 mM EDTA, and 0.01% Tween) and incubated at room temperature for one hour. This mixture is then further diluted to 90 nM in an Assay Buffer (20 mM HEPES, 150 mM sodium chloride, 10 mM magnesium chloride, and 0.005% Tween) containing 15 nM of Terbium-Streptavidin (Invitrogen, catalog #PV3577) and 900 nM of BODIPY-GDP (Invitrogen, catalog #G22360) and incubated at room temperature for six hours. It should be noted that this preformed TR-FRET complex for each of the RAS proteins was made ahead of time, aliquoted and stored at −80° C. until the day of the experiment.
(§3) Once titrations are made, 10 nL of the diluted compounds is acoustically dispensed into a 384-well assay plate (Corning, catalog #3820) using an Echo 550 (Labcyte). Each well of the assay plate subsequently receives 3 μL of a specific 3× RAS preformed TR-FRET complex and 3 μL of Assay Buffer and is incubated at room temperature for 60 minutes (preincubation time). […] The final reaction in each well of 9 μL consists of 3 mM GTP, and the specific RAS and SOS proteins in the following concentrations: KRAS-G12C/SOS=3 nM/40 nM, KRAS-G12D/SOS=1 nM/40 nM, KRAS-G12V/SOS=1.25 nM/160 nM, HRAS/SOS=1.25 nM/40 nM, and NRAS/SOS=1.25 nM/40 nM.
(§4) The TR-FRET signal is measured on an Envision (PerkinElmer) plate reader: Excitation filter=340 nm; emission 1=495 nm; emission 2=520 nm; dichroic mirror=D400/D505; delay time=100 ms. The signal of each well is determined as the ratio of the emission at 520 nm to that at 495 nm. […] The apparent effect as a function of compound concentration is fit to a four-parameter logistic equation to calculate IC50 values using Spotfire software.

[2] = target: NRAS (SEQ ID NO: 5) (Homo sapiens, UniProt P01111); experiment: SOS-catalyzed guanine nucleotide exchange (GNE) assay, NRAS
Procedure: as §1, §2, §3, §4

[3] = target: G13D (Homo sapiens, UniProt P01116, G13D); experiment: Guanine nucleotide exchange (GNE) assay, G13D; format: biochemical
Procedure: as §4

[4] = test system: NCI-H358 cells containing homozygous KRAS-G12C activating mutation (p-ERK); details: Homo sapiens, NCI-H358, 2 h, read-out: G12C H358 IC50 (nM)
Procedure: Procedure for Cellular Phospho-ERK Assay, G12C
NCI-H358 cells (ATCC® CRL-5807™), containing homozygous KRAS-G12C activating mutation, were cultured in T150 flask in growth medium (RPMI medium 1640-GlutaMAX™—I (ThermoFisher Scientific 61870) containing 10% fetal bovine serum (ThermoFisher Scientific 10091148)). The cells were harvested in growth medium after TrypLE (ThermoFisher scientific 12604021) digestion and were seeded in a 384-well collagen coated cell culture plate (Corning 356702) at a density of 15,000 cells/well, and incubated at 37° C., 5% CO2 overnight. […] RPMI medium 1640-GlutaMAX™—I was added to the intermediate plate and the contents of the intermediate plate were then transferred to the 384-well collagen coated cell culture plate, which was incubated at 37° C., 5% CO2 for 2 hours. After removal of medium from the collagen coated cell culture plate, cells were lysed in lysis buffer from Alpha SureFire® Ultra™ Multiplex p-ERK and total ERK assay kit (PerkinElmer MPSU-PTERK) containing Halt™ Protease and Phosphatase inhibitor cocktail (ThermoFisher Scientific 78446) at room temperature with constant shaking at 300 rpm for 30 minutes. The cell lysates were then transferred to an OptiPlate-384 plate (PerkinElmer 6005620), and the phosphorylation of ERK (p-ERK) and total ERK levels were detected by Alpha SureFire® Ultra™ Multiplex p-ERK kit and total ERK assay kit (PerkinElmer MPSU-PTERK) following the manufacturer's protocol. Assay plates were read on an EnVision Multimode Plate Reader (PerkinElmer), and the ratio of p-ERK vs. total ERK in each well was used as the final readout. Dose response curves were analyzed using a 4-parameter logistic model to calculate IC50 values using Spotfire software.

[5] = test system: AsPC-1 cells containing homozygous KRAS-G12D activating mutation (p-ERK); details: Homo sapiens, ASPC1, 2 h, read-out: KRAS G12D ASPC-1 IC50 (nM)
Procedure: Procedure for Cellular Phospho-ERK Assay, G12D
AsPC-1 cells (ATCC® CRL-1682™), containing homozygous KRAS-G12D activating mutation, were cultured in T150 flask in growth medium (RPMI medium 1640-GlutaMAX™—I (ThermoFisher Scientific 61870) containing 10% fetal bovine serum (ThermoFisher Scientific 10091148)). The cells were harvested in growth medium after TrypLE (ThermoFisher scientific 12604021) digestion and were seeded in a 384-well collagen coated cell culture plate (Corning 356702) at a density of 15,000 cells/well, and incubated at 37° C., 5% CO2 overnight. […] RPMI medium 1640-GlutaMAX™—I was added to the intermediate plate and the contents of the intermediate plate were then transferred to the 384-well collagen coated cell culture plate, which was incubated at 37° C., 5% CO2 for 2 hours. After removal of medium from the collagen coated cell culture plate, cells were lysed in lysis buffer from Alpha SureFire® Ultra™ Multiplex p-ERK and total ERK assay kit (PerkinElmer MPSU-PTERK) containing Halt™ Protease and Phosphatase inhibitor cocktail (ThermoFisher Scientific 78446) at room temperature with constant shaking at 300 rpm for 30 minutes. The cell lysates were then transferred to an OptiPlate-384 plate (PerkinElmer 6005620), and the phosphorylation of ERK (p-ERK) and total ERK levels were detected by Alpha SureFire® Ultra™ Multiplex p-ERK kit and total ERK assay kit (PerkinElmer MPSU-PTERK) following the manufacturer's protocol. Assay plates were read on a EnVision Multimode Plate Reader (PerkinElmer), and the ratio of p-ERK vs. total ERK in each well was used as the final readout. Dose response curves were analyzed using a 4-parameter logistic model to calculate IC50 values using Spotfire software.

[6] = target: Recombinant KRAS-G12D (SEQ ID NO: 2) (Homo sapiens, UniProt P01116, G12D); experiment: SOS-catalyzed guanine nucleotide exchange (GNE) assay, KRAS-G12D
Procedure: as §1, §2, §3, §4

[7] = target: HRAS (SEQ ID NO: 4) (Homo sapiens, UniProt P01112); experiment: SOS-catalyzed guanine nucleotide exchange (GNE) assay, HRAS
Sequence of HRAS (SEQ ID NO: 4) (P01112 with tags, fused parts or gaps): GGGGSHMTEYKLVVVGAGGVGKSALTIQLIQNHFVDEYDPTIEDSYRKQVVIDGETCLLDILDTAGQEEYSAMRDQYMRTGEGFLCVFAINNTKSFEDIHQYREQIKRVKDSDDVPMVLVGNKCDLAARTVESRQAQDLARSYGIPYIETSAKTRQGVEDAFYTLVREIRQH
Procedure: as §1, §2, §3, §4

Sequence of Recombinant KRAS-G12D (SEQ ID NO: 2) (P01116 with tags, fused parts or gaps isoform P01116-2 G12D): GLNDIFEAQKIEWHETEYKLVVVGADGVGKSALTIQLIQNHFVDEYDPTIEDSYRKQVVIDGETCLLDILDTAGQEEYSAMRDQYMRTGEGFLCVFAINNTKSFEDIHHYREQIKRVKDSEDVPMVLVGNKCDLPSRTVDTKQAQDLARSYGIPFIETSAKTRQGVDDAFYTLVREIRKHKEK
Sequence of G13D (P01116 1-188 isoform P01116-2 G13D): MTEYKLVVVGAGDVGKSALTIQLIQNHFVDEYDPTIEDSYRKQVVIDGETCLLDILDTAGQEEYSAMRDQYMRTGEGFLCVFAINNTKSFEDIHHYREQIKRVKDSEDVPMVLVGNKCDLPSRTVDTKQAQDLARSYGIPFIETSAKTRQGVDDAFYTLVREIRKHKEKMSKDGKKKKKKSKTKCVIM
Sequence of NRAS (SEQ ID NO: 5) (P01111 with tags, fused parts or gaps): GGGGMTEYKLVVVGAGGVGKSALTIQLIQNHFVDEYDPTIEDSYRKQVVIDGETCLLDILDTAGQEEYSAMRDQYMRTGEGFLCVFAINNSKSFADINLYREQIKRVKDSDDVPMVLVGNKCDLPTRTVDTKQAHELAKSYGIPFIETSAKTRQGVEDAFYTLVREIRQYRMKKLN
Sequence of Recombinant KRAS-G12V (SEQ ID NO: 3) (P01116 with tags, fused parts or gaps isoform P01116-2 G12V): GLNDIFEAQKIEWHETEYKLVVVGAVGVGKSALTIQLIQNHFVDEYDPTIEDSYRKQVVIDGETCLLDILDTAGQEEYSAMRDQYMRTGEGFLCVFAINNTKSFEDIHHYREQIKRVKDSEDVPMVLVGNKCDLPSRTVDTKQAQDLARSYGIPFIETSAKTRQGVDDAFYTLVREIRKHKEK

IC50 [1]: 3 nM | IC50 [2]: > 10000 nM | IC50 [3]: 4 nM | IC50 [4]: 58 nM | IC50 [5]: 91 nM | IC50 [6]: 3 nM | IC50 [7]: > 10000 nM
SMILES: C#Cc1cccc2cc(O)cc(-c3c(F)cc4c(N5CCC[C@@](C)(O)C5)nc(OC[C@@]56CCCN5C[C@H](F)C6)nc4c3F)c12 [Ex-42, (3R)-1-(7-(8-ethynyl-3-hydroxvnaphthalen-1-yl)-6,8-difluoro-2-(((2R,7aS)-2-fluorotetrahydro-1H-pyrrolizin-7a(5H)-yl)methoxy)quinazolin-4-yl)-3-methylpiperidin-3-ol]
